Results on 43 molecules are retold here after ChEMBL document CHEMBL4229341, “3-Hydroxy-1,5-dihydro-2H-pyrrol-2-ones as novel antibacterial scaffolds against methicillin-resistant Staphylococcus aureus” (2018).

Format in all cases: functional
In assay [1] the test system is Staphylococcus aureus. As to the kind of experiment: Antibacterial activity against methicillin resistant Staphylococcus aureus ATCC 33591 after 16 to 20 hrs by CLSI method.
Another assay has as its system Bacillus cereus. As to the kind of experiment: Antibacterial activity against Bacillus cereus.
For assay [2], the system named is Staphylococcus epidermidis. As to the kind of experiment: Antibacterial activity against methicillin resistant Staphylococcus epidermidis ATCC 51625 after 16 to 20 hrs by CLSI method.
Assay [3] relates to Staphylococcus aureus. As to the kind of experiment: Antibacterial activity against methicillin resistant Staphylococcus aureus ATCC 43300 after 16 to 20 hrs by CLSI method.
Assay [4] has as its system Staphylococcus aureus. As to the kind of experiment: Antibacterial activity against methicillin resistant Staphylococcus aureus BAA-44 after 16 to 20 hrs by CLSI method.
Assay [5] deals with Staphylococcus aureus. In words: Antibacterial activity against linezolid/methicillin resistant Staphylococcus aureus NR 45926 after 16 to 20 hrs by CLSI method.
The subject of assay [6] is Staphylococcus aureus. In words: Antibacterial activity against linezolid/methicillin resistant Staphylococcus aureus NR 45924 after 16 to 20 hrs by CLSI method.
Assay [7] concerns Staphylococcus aureus. As to the kind of experiment: Antibacterial activity against methicillin resistant Staphylococcus aureus NR 45913 after 16 to 20 hrs by CLSI method.
Assay [8] relates to Staphylococcus aureus. As to the kind of experiment: Antibacterial activity against methicillin resistant Staphylococcus aureus NR 45898 after 16 to 20 hrs by CLSI method.
Assay [9] deals with Staphylococcus epidermidis. In words: Antibacterial activity against methicillin resistant Staphylococcus epidermidis NR 46386 after 16 to 20 hrs by CLSI method.
Assay [10] deals with Staphylococcus aureus. As to the kind of experiment: Antibacterial activity against methicillin resistant Staphylococcus aureus BAA-1685 after 16 to 20 hrs by CLSI method.
In assay [11] the test system is Staphylococcus aureus. In words: Antibacterial activity against methicillin resistant Staphylococcus aureus NR 45906 after 16 to 20 hrs by CLSI method.

The structures appear in SMILES notation. In brackets after ≈: the same amount, converted by molar mass.

On to `O=C1C(O)=C(c2ccccc2[N+](=O)[O-])C2CCCN12` (stereo not drawn), for which the MIC – broadly, the smallest concentration in the dilution series that meets the test's criterion for growth inhibition – in the assay with Staphylococcus aureus [1] is above 128 µg/mL.

Turning to `O=C1C(O)=C(c2ccc(Br)cc2)C2CCCN12` (stereo not drawn), the MIC against Staphylococcus aureus [1] came out at 128 µg/mL (≈ 435 µM).

The molecule `COC1=C(c2ccc(C(F)(F)F)cc2)C2CCCCN2C1=O` (stereo not drawn) displayed an MIC against Staphylococcus aureus [1] above 128 µg/mL.

As to `COc1ccc(C2=C(O)C(=O)N3CCCCC23)cc1` (stereo not drawn), the MIC against Staphylococcus aureus [1] is above 128 µg/mL.

In turn, `O=C1C(O)=C(c2ccccc2)C2CCCCN12` (stereo not drawn) gave an MIC in the assay with Staphylococcus aureus [1] above 128 µg/mL.

Take `CCCCCC1=C(O)C(=O)N2CCCC12` (stereo not drawn): the minimal inhibitory concentration (MIC) in the assay on Staphylococcus aureus [1] is above 128 µg/mL.

For the molecule `O=C1C(O)=C(c2ccccc2)C2CCCN12` (stereo not drawn), the MIC is 50 to 100 µg/mL (≈ 232 to 465 µM) in the assay with Bacillus cereus and above 128 µg/mL against Staphylococcus aureus [1].

`O=C1C(O)=C(c2cccs2)C2CCCN12` (stereo not drawn) displayed an MIC against Staphylococcus aureus [1] above 128 µg/mL.

For the molecule `O=C1C(O)=C(c2ccc(C(F)(F)F)cc2)C2CCCCN12` (stereo not drawn), the MIC against Staphylococcus aureus [1] worked out at 32 µg/mL (≈ 108 µM).

In the case of `O=C1C(O)=C(c2ccc(O)cc2)C2CCCN12` (stereo not drawn), the MIC was 50 to 100 µg/mL (≈ 216 to 432 µM) in the assay with Bacillus cereus and above 128 µg/mL against Staphylococcus aureus [1].

Consider `CCC1C(c2ccc(C(F)(F)F)cc2)=C(O)C(=O)N1C(C)c1ccccc1` (stereo not drawn), for which inhibition of growth against Staphylococcus aureus [1] (MIC) required 32 µg/mL (≈ 85.2 µM).

As to `O=C1C(O)=C(c2ccc(Br)cc2)C2CCCCN12` (stereo not drawn), the MIC in the assay on Staphylococcus aureus [1] came out at 32 µg/mL (≈ 104 µM).

Molecule `C=CCC1=C(O)C(=O)N2CCCC12` (stereo not drawn) yielded an MIC in the assay with Staphylococcus aureus [1] above 128 µg/mL.

`O=C1C(O)=C(c2ccc(C(F)(F)F)cc2)C2CCCN12` (stereo not drawn) gave a minimal inhibitory concentration (MIC) against Staphylococcus aureus [1] of 128 µg/mL (≈ 452 µM).

`O=C1C(O)=C(c2cccs2)C2CCCCN12` (stereo not drawn): in the assay with Staphylococcus aureus [1], the MIC is 16 µg/mL (≈ 68 µM).

In turn, `COc1ccc(C2=C(O)C(=O)N3CCCC23)cc1` (stereo not drawn) displayed an MIC in the assay on Staphylococcus aureus [1] above 128 µg/mL.

For `O=C1C(O)=C(c2ccc(F)cc2)C2CCCCN12` (racemic), the MIC against Staphylococcus aureus [1] was above 128 µg/mL.

Regarding `CCC1C(c2ccc(C(F)(F)F)cc2)=C(O)C(=O)N1C1CCCCC1` (racemic), the MIC in assay [2] came to 16 µg/mL (≈ 45.3 µM); in the assay on Staphylococcus aureus [3], 64 µg/mL (≈ 181 µM); against Staphylococcus aureus [4], 32 µg/mL (≈ 90.6 µM); in the assay with Staphylococcus aureus [5], 32 µg/mL (≈ 90.6 µM); in the assay on Staphylococcus aureus [6] it was 32 µg/mL (≈ 90.6 µM); against Staphylococcus aureus [7] it was 8 µg/mL (≈ 22.6 µM). The MIC was 8 µg/mL (≈ 22.6 µM) with Staphylococcus aureus [8]; 2 µg/mL (≈ 5.66 µM) in [9]; 32 µg/mL (≈ 90.6 µM) with Staphylococcus aureus [10]; 2 µg/mL (≈ 5.66 µM) in the assay with Staphylococcus aureus [11]; 8 µg/mL (≈ 22.6 µM) with Staphylococcus aureus [1].

For the molecule `CCC1C(c2ccc(C(F)(F)F)cc2)=C(O)C(=O)N1Cc1ccncc1` (racemic), it took 64 µg/mL (≈ 177 µM) to inhibit growth against Staphylococcus aureus [1] (MIC).

Molecule `CCCCCCN1C(=O)C(O)=C(c2ccc(C(F)(F)F)cc2)C1c1ccccc1` (racemic) registered an MIC against Staphylococcus aureus [1] of 32 µg/mL (≈ 79.3 µM).

Molecule `O=C1C(O)=C(c2ccc(C(F)(F)F)cc2)C2CCCCCN12` (racemic) yielded an MIC in the assay with Staphylococcus aureus [1] of 32 µg/mL (≈ 103 µM).

On to `CCC1NC(=O)C(O)=C1c1ccc(C(F)(F)F)cc1` (racemic), for which, in the assay on Staphylococcus aureus [1], the lowest concentration to inhibit growth (MIC) was 128 µg/mL (≈ 472 µM). Against the preceding molecule, the MIC is about 4-fold higher.

In the assay with Staphylococcus aureus [1], `CCC1C(c2ccc(C(F)(F)F)cc2)=C(O)C(=O)N1C` (racemic) displayed an MIC of 64 µg/mL (≈ 224 µM).

Turning to `CCC1C(c2ccc(C(F)(F)F)cc2)=C(O)C(=O)N1CCCCO` (racemic), the MIC with Staphylococcus aureus [1] is above 128 µg/mL.

In the assay on Staphylococcus aureus [1], `O=C1C(O)=C(c2ccc(F)cc2)C2CCCN12` (racemic) displayed an MIC above 128 µg/mL.

In turn, `O=C1C(O)=C(c2ccc(Cl)cc2)C2CCCCN12` (racemic) returned an MIC against Staphylococcus aureus [1] above 128 µg/mL.

Turning to `CCC1C(c2ccc(C(F)(F)F)cc2)=C(O)C(=O)N1c1ccccc1` (racemic), the MIC in [2] was 8 µg/mL (≈ 23 µM); in the assay on Staphylococcus aureus [3], 64 µg/mL (≈ 184 µM); in the assay on Staphylococcus aureus [4] it was 32 µg/mL (≈ 92.1 µM); with Staphylococcus aureus [5], 8 µg/mL (≈ 23 µM); against Staphylococcus aureus [6], 16 µg/mL (≈ 46.1 µM); in the assay on Staphylococcus aureus [7], 8 µg/mL (≈ 23 µM). Besides, the MIC came to 8 µg/mL (≈ 23 µM) with Staphylococcus aureus [8]; 4 µg/mL (≈ 11.5 µM) in [9]; 32 µg/mL (≈ 92.1 µM) with Staphylococcus aureus [10]; 8 µg/mL (≈ 23 µM) against Staphylococcus aureus [11]; 8 µg/mL (≈ 23 µM) in the assay on Staphylococcus aureus [1].

In the assay on Staphylococcus aureus [1], `CCC1C(c2ccc(C(F)(F)F)cc2)=C(O)C(=O)N1Cc1ccc(OC)cc1OC` (racemic) had an MIC of 32 µg/mL (≈ 75.9 µM).

In the assay with Staphylococcus aureus [1], `CCC1C(c2ccc(C(F)(F)F)cc2)=C(O)C(=O)N1Cc1ccc(-c2ccccc2)cc1` (racemic) came in with an MIC of 64 µg/mL (≈ 146 µM).

Regarding `O=C1C(O)=C(c2ccc(Cl)cc2)C2CCCN12` (racemic), the minimum inhibitory concentration (MIC) with Staphylococcus aureus [1] was above 128 µg/mL.

`CCCCCCN1C(=O)C(O)=C(c2ccc(C(F)(F)F)cc2)C1CCCC` (racemic): the minimal inhibitory concentration (MIC) in the assay on Staphylococcus aureus [1] was 32 µg/mL (≈ 83.5 µM).

The molecule `CC1CCN2C(=O)C(O)=C(c3ccc(C(F)(F)F)cc3)C2C1` (racemic) registered an MIC in the assay with Staphylococcus aureus [1] of 128 µg/mL (≈ 411 µM).

For the molecule `Cc1ccc(C2=C(O)C(=O)N3CCCCC23)cc1` (racemic), the MIC against Staphylococcus aureus [1] is above 128 µg/mL.

On to `CCC1C(c2ccc(C(F)(F)F)cc2)=C(O)C(=O)N1CC(C)C` (racemic), for which the MIC in the assay with Staphylococcus aureus [1] is 16 µg/mL (≈ 48.9 µM).

Turning to `CCC1C(c2ccc(C(F)(F)F)cc2)=C(O)C(=O)N1Cc1ccccc1` (racemic), the minimal inhibitory concentration (MIC) in assay [2] was determined as 8 µg/mL (≈ 22.1 µM); against Staphylococcus aureus [3] it was 32 µg/mL (≈ 88.6 µM); against Staphylococcus aureus [4], 64 µg/mL (≈ 177 µM); with Staphylococcus aureus [5], 16 µg/mL (≈ 44.3 µM); against Staphylococcus aureus [6] it was 32 µg/mL (≈ 88.6 µM); against Staphylococcus aureus [7], 16 µg/mL (≈ 44.3 µM). Also, the MIC against Staphylococcus aureus [8] is 16 µg/mL (≈ 44.3 µM); in assay [9] it was 8 µg/mL (≈ 22.1 µM); against Staphylococcus aureus [10], 32 µg/mL (≈ 88.6 µM); against Staphylococcus aureus [11], 8 µg/mL (≈ 22.1 µM); in the assay on Staphylococcus aureus [1] it was 8 µg/mL (≈ 22.1 µM).

`C=CCN1C(=O)C(O)=C(c2ccc(C(F)(F)F)cc2)C1CC` (racemic): in the assay on Staphylococcus aureus [1], the minimum inhibitory concentration (MIC) is 32 µg/mL (≈ 103 µM).

In turn, `CCC1C(c2ccc(C(F)(F)F)cc2)=C(O)C(=O)N1Cc1ccc(C(F)(F)F)cc1` (racemic) had an MIC in the assay with Staphylococcus aureus [1] of 32 µg/mL (≈ 74.5 µM).

Molecule `CCCCCCN1C(=O)C(O)=C(c2ccc(C(F)(F)F)cc2)C1CCc1ccccc1` (racemic) had an MIC against Staphylococcus aureus [1] of 64 µg/mL (≈ 148 µM).

`C#CCN1C(=O)C(O)=C(c2ccc(C(F)(F)F)cc2)C1CC` (racemic): in the assay with Staphylococcus aureus [1], the MIC stood at 32 µg/mL (≈ 103 µM).

In the assay on Staphylococcus aureus [1], `Cc1ccc(C2=C(O)C(=O)N3CCCC23)cc1` (racemic) returned an MIC of 128 µg/mL (≈ 558 µM).

`CCCCCCN1C(=O)C(O)=C(c2ccc(C(F)(F)F)cc2)C1CC` (racemic): the minimum inhibitory concentration (MIC) was 4 µg/mL (≈ 11.3 µM) in [2]; 64 µg/mL (≈ 180 µM) in the assay with Staphylococcus aureus [3]; 64 µg/mL (≈ 180 µM) in the assay with Staphylococcus aureus [4]; 32 µg/mL (≈ 90 µM) with Staphylococcus aureus [5]; 64 µg/mL (≈ 180 µM) with Staphylococcus aureus [6]; 32 µg/mL (≈ 90 µM) with Staphylococcus aureus [7]. Further, the MIC with Staphylococcus aureus [8] was found to be 32 µg/mL (≈ 90 µM); in assay [9] it was 8 µg/mL (≈ 22.5 µM); with Staphylococcus aureus [10], 64 µg/mL (≈ 180 µM); against Staphylococcus aureus [11], 4 µg/mL (≈ 11.3 µM); against Staphylococcus aureus [1] it was 2 µg/mL (≈ 5.63 µM).

For the molecule `CC[C@H]1OC(=O)[C@H](C)[C@@H](O[C@H]2C[C@@](C)(OC)[C@@H](O)[C@H](C)O2)[C@H](C)[C@@H](O[C@@H]2O[C@H](C)C[C@H](N(C)C)[C@H]2O)[C@](C)(O)C[C@@H](C)C(=O)[C@H](C)[C@@H](O)[C@]1(C)O` [ERYTHROMYCIN], the MIC against Staphylococcus aureus [5] and against Staphylococcus aureus [6] was 0.5 µg/mL (≈ 0.681 µM) each time.

Turning to `CC(=O)NC[C@H]1CN(c2ccc(N3CCOCC3)c(F)c2)C(=O)O1` [LINEZOLID], the MIC in [2] was determined as 0.25 µg/mL (≈ 0.741 µM); with Staphylococcus aureus [3] it was 1 µg/mL (≈ 2.96 µM); against Staphylococcus aureus [4], 1 µg/mL (≈ 2.96 µM); in the assay with Staphylococcus aureus [7], 0.5 µg/mL (≈ 1.48 µM); in the assay with Staphylococcus aureus [8], 0.5 µg/mL (≈ 1.48 µM); in [9] it was 0.25 µg/mL (≈ 0.741 µM). In addition, the MIC with Staphylococcus aureus [10] and with Staphylococcus aureus [1] was 1 µg/mL (≈ 2.96 µM) throughout.
